Experimental data reported in PMC9306950 (Clinical Pharmacology in Drug Development, 2022).
Like-named read-outs stand apart in the source and are kept apart here.

Key:
[1] = plasma
[2] = Safety: treatment-emergent adverse events in study CL-0538; type: in vivo, healthy subjects; conditions: for TEAE dry mouth, subjects / TEAE headache, subjects: CL-0538; for number of TEAEs considered possibly related to the study drug / subjects with TEAEs considered possibly related to the study drug: investigator assessment
[3] = for AUC(0-inf) / Cmax / half-life / Tmax / AUC(0-t): human, in vivo; for AUC(0-inf): AUCinf; for AUC(0-t): AUClast
[4] = for increase of AUCinf / increase of Cmax: statin dosed concomitantly with roxadustat vs statin alone; for CL/F lower in the presence of roxadustat: concomitant roxadustat vs statin alone
[5] = clinical; conditions: human, in vivo; for AUC(0-inf): AUCinf
[6] = Safety: treatment-emergent adverse events in study CL-0541; type: in vivo, healthy subjects
[7] = Safety: treatment-emergent adverse events in study CL-0537; type: in vivo, healthy subjects; conditions: for TEAE headache, subjects / TEAE nasopharyngitis, subjects: CL-0537; for number of TEAEs considered related to the study drug / subjects with TEAEs considered related to the study drug: investigator assessment
[8] = cited from earlier work
[9] = Safety and tolerability across the 3 studies; type: in vivo, healthy subjects; conditions: roxadustat 200 mg, observation periods of the 3 studies
[10] = tested on: CYP2C8; conditions: read-out: inhibition constant (Ki); in vitro; cited from earlier work
[11] = atorvastatin 40 mg + roxadustat 200 mg, concomitant
[12] = 40 mg, mean (SD), simvastatin 40 mg alone, plasma
[13] = mean (SD), simvastatin administered 2 hours before roxadustat, plasma
[14] = mean (SD), simvastatin administered 4 hours after roxadustat, plasma
[15] = mean (SD), simvastatin administered 10 hours after roxadustat, plasma
[16] = median (min-max), simvastatin administered 2 hours before roxadustat, plasma
[17] = median (min-max), simvastatin administered 4 hours after roxadustat, plasma
[18] = median (min-max), simvastatin administered 10 hours after roxadustat, plasma
[19] = statin + roxadustat 200 mg (steady state), concomitant, plasma
[20] = statin alone, single oral dose, plasma
[21] = GLS mean for statin alone, statin alone
[22] = po, mean (SD), statin alone, single oral dose, plasma
[23] = po, median (min-max), statin alone, single oral dose, plasma
[24] = simvastatin administered 2 hours before roxadustat
[25] = simvastatin administered 4 hours after roxadustat
[26] = simvastatin administered 10 hours after roxadustat
[27] = statin + roxadustat / statin alone

With `CC(C)c1c(C(=O)Nc2ccccc2)c(-c2ccccc2)c(-c2ccc(F)cc2)n1CC[C@@H](O)C[C@@H](O)CC(=O)O` [Atorvastatin] the “tlag, mean (SD)” value [1, 11] was 0 (0.0) h, the “tlag, median (min-max)” value [1, 11] was 0 (0–0) h and the “tlag, mean (SD)” value ([1]; atorvastatin 40 mg alone) was 0 (0.0) h. The “tlag, median (min-max)” value ([1]; atorvastatin 40 mg alone) was 0 (0–0) h, the “TEAE dry mouth, subjects” value [2] was 0.0% and the “TEAE headache, subjects” value [2] was 4.2%. The “number of TEAEs considered possibly related to the study drug” value [2] was 2 and the “subjects with TEAEs considered possibly related to the study drug” value [2] was 2 (8.3%) n (%).

With `CCC(C)(C)C(=O)O[C@H]1C[C@@H](C)C=C2C=C[C@H](C)[C@H](CC[C@@H](O)C[C@@H](O)CC(=O)O)[C@H]21` [Simvastatin acid] the AUC(0-inf) [3, 12] was 24.3 ng·h/mL, the AUC(0-inf) ([3]; 40 mg, median (min-max), simvastatin 40 mg alone, plasma) was 21.2 ng·h/mL and the Cmax [3, 12] was 2.12 ng/mL. For the same compound, the half-life ([3]; 40 mg, t1/2, mean (SD), simvastatin 40 mg alone, plasma) was 7 h, the half-life ([3]; 40 mg, t1/2, median (min-max), simvastatin 40 mg alone, plasma) was 6.36 h and the Tmax [3, 12] was 5.38 h. It also gave an AUC(0-inf) ([3]; GLS mean for simvastatin alone, simvastatin alone) of 21 ng·h/mL, an AUC(0-inf) [3, 13] of 48.7 ng·h/mL and an AUC(0-inf) [3, 14] of 84.7 ng·h/mL. The AUC(0-inf) [3, 15] was 59.4 ng·h/mL, the AUC(0-inf) [3, 16] was 41 ng·h/mL and the AUC(0-inf) [3, 17] was 70.3 ng·h/mL. The AUC(0-inf) [3, 18] was 50.5 ng·h/mL, the AUC(0-t) [3, 13] was 44.7 ng·h/mL and the AUC(0-t) [3, 14] was 82.8 ng·h/mL. For the same compound, the AUC(0-t) [3, 15] was 57.4 ng·h/mL, the AUC(0-t) [3, 16] was 38.2 ng·h/mL and the AUC(0-t) [3, 17] was 68.9 ng·h/mL. For the same compound, the AUC(0-t) [3, 18] was 49.8 ng·h/mL, the Cmax [3, 13] was 4.99 ng/mL and the Cmax [3, 14] was 12.8 ng/mL. For the same compound, the Cmax [3, 15] was 7.13 ng/mL, the Cmax [3, 16] was 4.5 ng/mL and the Cmax [3, 17] was 11.6 ng/mL. It also gave a Cmax [3, 18] of 6.1 ng/mL, a half-life ([3]; t1/2, mean (SD), simvastatin administered 2 hours before roxadustat, plasma) of 4.6 h and a half-life ([3]; t1/2, mean (SD), simvastatin administered 4 hours after roxadustat, plasma) of 3.75 h. It also gave a half-life ([3]; t1/2, mean (SD), simvastatin administered 10 hours after roxadustat, plasma) of 4.16 h, a half-life ([3]; t1/2, median (min-max), simvastatin administered 2 hours before roxadustat, plasma) of 4.27 h and a half-life ([3]; t1/2, median (min-max), simvastatin administered 4 hours after roxadustat, plasma) of 3.45 h. It also gave a Tmax [3, 13] of 5.55 h, a Tmax [3, 14] of 4.01 h and a Tmax [3, 15] of 4.4 h. For the same compound, the Tmax [3, 16] was 6 h, the Tmax [3, 18] was 4.01 h and the “AUClast, mean (SD)” value ([3]; simvastatin 40 mg alone, plasma) was 22.17 (11.98) ng • h/mL. For the same compound, the “tmax, median (min-max)” value ([3]; simvastatin administered 4 hours after roxadustat, plasma) was 4.00 (2.02–6.00) h, the “tlag, mean (SD)” value [4, 19] was 0.29 (0.35) h and the “tlag, median (min-max)” value [4, 19] was 0 (0–1.02) h. The “tlag, mean (SD)” value [4, 20] was 0.47 (0.31) h, the “tlag, median (min-max)” value [4, 20] was 0.50 (0–1.00) h and the “increase of AUCinf” value [4] was 1.85 fold. The “increase of Cmax” value [4] was 2.76 fold, the AUC(0-inf) [5, 21] was 24.6 ng·h/mL and the Cmax [5, 21] was 1.86 ng/mL. For the same compound, the Cmax [5, 22] was 2.17 ng/mL, the Cmax [5, 23] was 2.06 ng/mL and the half-life ([5]; po, t1/2, mean (SD)) was 6.28 h. It also gave a half-life ([5]; po, t1/2, median (min-max)) of 5.78 h, a Tmax [5, 22] of 5.7 h and a Tmax [5, 23] of 4.02 h. It also gave a half-life ([5]; t1/2, mean (SD)) of 5.98 h and a half-life ([5]; t1/2, median (min-max)) of 5.27 h.

In the case of `CCC(C)(C)C(=O)O[C@H]1C[C@@H](C)C=C2C=C[C@H](C)[C@H](CC[C@@H]3C[C@@H](O)CC(=O)O3)[C@H]21` [Simvastatin], the “lower mean CL/F” value ([3]; simvastatin 2 hours before roxadustat) is reported as 42%, the “lower mean CL/F” value ([3]; simvastatin 4 hours after roxadustat) is reported as 51% and the “lower mean CL/F” value ([3]; simvastatin 10 hours after roxadustat) is reported as 46%. The “CL/F lower in the presence of roxadustat” value [4] was 40%, the “increase of Cmax” value [4] was 1.87 fold and the “TEAE headache, subjects” value [6, 24] was 16.7%. For the same compound, the “TEAE incidence: Overall” value [6, 24] was 9 (37.5%) n (%), the “total number of TEAEs” value [6, 24] was 12 and the “TEAE headache, subjects” value [6, 25] was 4.2%. The “TEAE incidence: Overall” value [6, 25] was 6 (25.0%) n (%), the “number of TEAEs of dizziness possibly related to the study drug” value [6, 25] was 1 and the “subjects with TEAE of dizziness possibly related to the study drug” value [6, 25] was 1 (4.2%) n (%). The “total number of TEAEs” value [6, 25] was 8, the “TEAE headache, subjects” value [6, 26] was 8.3% and the “TEAE incidence: Overall” value [6, 26] was 4 (16.7%) n (%). For the same compound, the “number of TEAEs of dizziness possibly related to the study drug” value [6, 26] was 2, the “subjects with TEAE of dizziness possibly related to the study drug” value [6, 26] was 1 (4.2%) n (%) and the “total number of TEAEs” value [6, 26] was 9. The “TEAE headache, subjects” value ([6]; simvastatin administered alone) was 8.3%, the “TEAE incidence: Overall” value ([6]; simvastatin alone) was 5 (20.8%) n (%) and the “total number of TEAEs” value ([6]; simvastatin alone) was 6. For the same compound, the “TEAE headache, subjects” value [7] was 0.0% and the “TEAE nasopharyngitis, subjects” value [7] was 0.0%.

With `CC(C)c1nc(N(C)S(C)(=O)=O)nc(-c2ccc(F)cc2)c1/C=C/[C@@H](O)C[C@@H](O)CC(=O)O` [Rosuvastatin] the “CL/F lower in the presence of roxadustat” value [4] was 66%, the “AUCinf, GLS mean for statin alone” value ([4]; human, in vivo) was 62 878 pg • h/mL and the “AUCinf, mean (SD)” value ([4]; human, in vivo) was 196 187 (95 367) pg • h/mL. The “AUCinf, median (min-max)” value ([4]; human, in vivo) was 177 873 (48 036–503 953) pg • h/mL, the “AUClast, mean (SD)” value ([4]; human, in vivo) was 192 156 (95 253) pg • h/mL and the “AUClast, median (min-max)” value ([4]; human, in vivo) was 173 565 (43 917–498 457) pg • h/mL. The “Cmax, mean (SD)” value ([4]; human, in vivo) was 22 980 (12 787) pg/mL, the “Cmax, median (min-max)” value ([4]; human, in vivo) was 19 811 (4059–58 463) pg/mL and the “tlag, mean (SD)” value ([4]; human, in vivo) was 0 (0.0) h. For the same compound, the “tlag, median (min-max)” value ([4]; human, in vivo) was 0 (0–0) h, the “AUCinf, mean (SD)” value ([4]; human, in vivo, po) was 67 613 (33 727) pg • h/mL and the “AUCinf, median (min-max)” value ([4]; human, in vivo, po) was 57 187 (21 336–165 242) pg • h/mL. For the same compound, the “AUClast, mean (SD)” value ([4]; human, in vivo, po) was 61 459 (34 796) pg • h/mL, the “AUClast, median (min-max)” value ([4]; human, in vivo, po) was 54 017 (0–159 223) pg • h/mL and the “Cmax, mean (SD)” value ([4]; human, in vivo, po) was 4939 (2991) pg/mL. For the same compound, the “Cmax, median (min-max)” value ([4]; human, in vivo, po) was 4062 (0–13 775) pg/mL, the “tlag, mean (SD)” value ([4]; human, in vivo, po) was 0 (0.0) h and the “tlag, median (min-max)” value ([4]; human, in vivo, po) was 0 (0–0) h. The “CL/F, mean (SD)” value [4, 19] was 63.4 (35.8) L/h, the “CL/F, median (min-max)” value [4, 19] was 56.22 (19.8–208) L/h and the “AUCinf, GLS mean ratio (%)” value [4, 27] was 292.55%. The “Cmax, GLS mean ratio (%)” value [4, 27] was 447.33%, the “CL/F, mean (SD)” value [4, 20] was 185.3 (91.3) L/h and the “CL/F, median (min-max)” value [4, 20] was 174.9 (60.5–469) L/h. For the same compound, the “tmax, median (min-max)” value [4, 20] was 4.00 (3.00–6.02) h, the “increase of AUCinf” value [4] was 2.93 fold and the “increase of Cmax” value [4] was 4.47 fold. The “TEAE headache, subjects” value [7] was 0.0%, the “TEAE nasopharyngitis, subjects” value [7] was 0.0% and the “number of TEAEs considered related to the study drug” value [7] was 2. The “subjects with TEAEs considered related to the study drug” value [7] was 2 (7.1%) n (%), the AUC(0-inf) ([5]; GLS mean for roxadustat + statin) was 184 ng·h/mL and the Cmax ([5]; GLS mean for statin alone) was 4.65 ng/mL. It also gave a half-life ([5]; po, t1/2, mean (SD), statin alone, single oral dose, plasma) of 15.5 h, a half-life ([5]; po, t1/2, median (min-max), statin alone, single oral dose, plasma) of 15.2 h and a Tmax [5, 22] of 3.9 h.

With `Cc1nc(C(=O)NCC(=O)O)c(O)c2ccc(Oc3ccccc3)cc12` [Roxadustat] the “TEAE dry mouth, subjects” value [2] was 8.3%, the “TEAE headache, subjects” value [2] was 4.2% and the “number of TEAEs considered possibly related to the study drug” value [2] was 3. The “subjects with TEAEs considered possibly related to the study drug” value [2] was 2 (8.3%) n (%), the “terminal elimination half-life (t1/2)” value ([8]; after single-dose oral administration, healthy subjects) was “≈ 12 hours” and the “time to maximum plasma concentrations (Cmax) after dosing” value ([8]; fasted state) was at most 2 h. The “time to reach maximum plasma concentration (Cmax)” value ([8]; oral, healthy subjects) was at most 2 h, the “deaths, serious TEAEs, AEs leading to discontinuation” value [9] was “did not result in any deaths, serious TEAEs, or AEs leading to discontinuation of study drug” and the Ki [10] was 16 µM. For the same compound, the “TEAE headache, subjects” value [7] was 7.1%, the “TEAE nasopharyngitis, subjects” value [7] was 0.0% and the “number of TEAEs considered related to the study drug” value [7] was 4. The “subjects with TEAEs considered related to the study drug” value [7] was 4 (14.3%) n (%).
